± gives the expanded uncertainty stated by the source.
Experiment: mn = molality of the nth substance listed, in mol/kg
Settings: 100 kPa, Liquid, Vibrating tube method

SMILES: O=C(O)[C@@H]1CCCN1 [L-proline] + O
- mass density (278.65 K, m1 = 0.0132): 1000.41 ± 0.11 kg/m3
- mass density (278.65 K, m1 = 0.0326): 1001.08 ± 0.11 kg/m3
- mass density (278.65 K, m1 = 0.0542): 1001.81 ± 0.11 kg/m3
- mass density (278.65 K, m1 = 0.0692): 1002.32 ± 0.11 kg/m3
- mass density (278.65 K, m1 = 0.0808): 1002.71 ± 0.11 kg/m3
- mass density (278.65 K, m1 = 0.1014): 1003.42 ± 0.11 kg/m3
- mass density (278.65 K, m1 = 0.1196): 1004.08 ± 0.11 kg/m3
- mass density (278.65 K, m1 = 0.1326): 1004.49 ± 0.11 kg/m3
- mass density (278.65 K, m1 = 0.1555): 1005.24 ± 0.15 kg/m3
- mass density (278.65 K, m1 = 0.1568): 1005.37 ± 0.15 kg/m3
- mass density (278.65 K, m1 = 0.1835): 1006.18 ± 0.11 kg/m3
- mass density (278.65 K, m1 = 0.2076): 1006.97 ± 0.11 kg/m3
- mass density (278.65 K, m1 = 0.2212): 1007.63 ± 0.12 kg/m3
- mass density (279.15 K, m1 = 0.0132): 1000.39 ± 0.11 kg/m3
- mass density (279.15 K, m1 = 0.0326): 1001.06 ± 0.11 kg/m3
- mass density (279.15 K, m1 = 0.0542): 1001.79 ± 0.11 kg/m3
- mass density (279.15 K, m1 = 0.0692): 1002.3 ± 0.11 kg/m3
- mass density (279.15 K, m1 = 0.0808): 1002.7 ± 0.11 kg/m3
- mass density (279.15 K, m1 = 0.1014): 1003.4 ± 0.11 kg/m3
- mass density (279.15 K, m1 = 0.1196): 1004.06 ± 0.11 kg/m3
- mass density (279.15 K, m1 = 0.1326): 1004.47 ± 0.11 kg/m3
- mass density (279.15 K, m1 = 0.1555): 1005.21 ± 0.15 kg/m3
- mass density (279.15 K, m1 = 0.1568): 1005.35 ± 0.15 kg/m3
- mass density (279.15 K, m1 = 0.1835): 1006.15 ± 0.11 kg/m3
- mass density (279.15 K, m1 = 0.2076): 1006.94 ± 0.11 kg/m3
- mass density (279.15 K, m1 = 0.2212): 1007.6 ± 0.12 kg/m3
- mass density (279.65 K, m1 = 0.0132): 1000.38 ± 0.11 kg/m3
- mass density (279.65 K, m1 = 0.0326): 1001.04 ± 0.11 kg/m3
- mass density (279.65 K, m1 = 0.0542): 1001.77 ± 0.11 kg/m3
- mass density (279.65 K, m1 = 0.0692): 1002.27 ± 0.11 kg/m3
- mass density (279.65 K, m1 = 0.0808): 1002.67 ± 0.11 kg/m3
- mass density (279.65 K, m1 = 0.1014): 1003.37 ± 0.11 kg/m3
- mass density (279.65 K, m1 = 0.1196): 1004.03 ± 0.11 kg/m3
- mass density (279.65 K, m1 = 0.1326): 1004.44 ± 0.11 kg/m3
- mass density (279.65 K, m1 = 0.1555): 1005.19 ± 0.15 kg/m3
- mass density (279.65 K, m1 = 0.1568): 1005.32 ± 0.15 kg/m3
- mass density (279.65 K, m1 = 0.1835): 1006.12 ± 0.11 kg/m3
- mass density (279.65 K, m1 = 0.2076): 1006.91 ± 0.11 kg/m3
- mass density (279.65 K, m1 = 0.2212): 1007.57 ± 0.12 kg/m3
- mass density (280.15 K, m1 = 0.0132): 1000.35 ± 0.11 kg/m3
- mass density (280.15 K, m1 = 0.0326): 1001.02 ± 0.11 kg/m3
- mass density (280.15 K, m1 = 0.0542): 1001.75 ± 0.11 kg/m3
- mass density (280.15 K, m1 = 0.0692): 1002.25 ± 0.11 kg/m3
- mass density (280.15 K, m1 = 0.0808): 1002.64 ± 0.11 kg/m3
- mass density (280.15 K, m1 = 0.1014): 1003.35 ± 0.11 kg/m3
- mass density (280.15 K, m1 = 0.1196): 1004 ± 0.11 kg/m3
- mass density (280.15 K, m1 = 0.1326): 1004.41 ± 0.11 kg/m3
- mass density (280.15 K, m1 = 0.1555): 1005.15 ± 0.15 kg/m3
- mass density (280.15 K, m1 = 0.1568): 1005.29 ± 0.15 kg/m3
- mass density (280.15 K, m1 = 0.1835): 1006.09 ± 0.11 kg/m3
- mass density (280.15 K, m1 = 0.2076): 1006.87 ± 0.11 kg/m3
- mass density (280.15 K, m1 = 0.2212): 1007.53 ± 0.12 kg/m3
- mass density (280.65 K, m1 = 0.0132): 1000.33 ± 0.11 kg/m3
- mass density (280.65 K, m1 = 0.0326): 1000.99 ± 0.11 kg/m3
- mass density (280.65 K, m1 = 0.0542): 1001.72 ± 0.11 kg/m3
- mass density (280.65 K, m1 = 0.0692): 1002.22 ± 0.11 kg/m3
- mass density (280.65 K, m1 = 0.0808): 1002.61 ± 0.11 kg/m3
- mass density (280.65 K, m1 = 0.1014): 1003.31 ± 0.11 kg/m3
- mass density (280.65 K, m1 = 0.1196): 1003.97 ± 0.11 kg/m3
- mass density (280.65 K, m1 = 0.1326): 1004.38 ± 0.11 kg/m3
- mass density (280.65 K, m1 = 0.1555): 1005.12 ± 0.15 kg/m3
- mass density (280.65 K, m1 = 0.1568): 1005.25 ± 0.15 kg/m3
- mass density (280.65 K, m1 = 0.1835): 1006.05 ± 0.11 kg/m3
- mass density (280.65 K, m1 = 0.2076): 1006.83 ± 0.11 kg/m3
- mass density (280.65 K, m1 = 0.2212): 1007.5 ± 0.12 kg/m3
- mass density (281.15 K, m1 = 0.0132): 1000.3 ± 0.11 kg/m3
- mass density (281.15 K, m1 = 0.0326): 1000.97 ± 0.11 kg/m3
- mass density (281.15 K, m1 = 0.0542): 1001.69 ± 0.11 kg/m3
- mass density (281.15 K, m1 = 0.0692): 1002.19 ± 0.11 kg/m3
- mass density (281.15 K, m1 = 0.0808): 1002.59 ± 0.11 kg/m3
- mass density (281.15 K, m1 = 0.1014): 1003.28 ± 0.11 kg/m3
- mass density (281.15 K, m1 = 0.1196): 1003.94 ± 0.11 kg/m3
- mass density (281.15 K, m1 = 0.1326): 1004.35 ± 0.11 kg/m3
- mass density (281.15 K, m1 = 0.1555): 1005.09 ± 0.15 kg/m3
- mass density (281.15 K, m1 = 0.1568): 1005.22 ± 0.14 kg/m3
- mass density (281.15 K, m1 = 0.1835): 1006.02 ± 0.11 kg/m3
- mass density (281.15 K, m1 = 0.2076): 1006.8 ± 0.11 kg/m3
- mass density (281.15 K, m1 = 0.2212): 1007.46 ± 0.12 kg/m3
- mass density (281.65 K, m1 = 0.0132): 1000.27 ± 0.11 kg/m3
- mass density (281.65 K, m1 = 0.0326): 1000.93 ± 0.11 kg/m3
- mass density (281.65 K, m1 = 0.0542): 1001.66 ± 0.11 kg/m3
- mass density (281.65 K, m1 = 0.0692): 1002.15 ± 0.11 kg/m3
- mass density (281.65 K, m1 = 0.0808): 1002.55 ± 0.11 kg/m3
- mass density (281.65 K, m1 = 0.1014): 1003.25 ± 0.11 kg/m3
- mass density (281.65 K, m1 = 0.1196): 1003.9 ± 0.11 kg/m3
- mass density (281.65 K, m1 = 0.1326): 1004.31 ± 0.11 kg/m3
- mass density (281.65 K, m1 = 0.1555): 1005.04 ± 0.15 kg/m3
- mass density (281.65 K, m1 = 0.1568): 1005.18 ± 0.15 kg/m3
- mass density (281.65 K, m1 = 0.1835): 1005.98 ± 0.11 kg/m3
- mass density (281.65 K, m1 = 0.2076): 1006.75 ± 0.11 kg/m3
- mass density (281.65 K, m1 = 0.2212): 1007.41 ± 0.12 kg/m3
- mass density (282.15 K, m1 = 0.0132): 1000.23 ± 0.11 kg/m3
- mass density (282.15 K, m1 = 0.0326): 1000.89 ± 0.11 kg/m3
- mass density (282.15 K, m1 = 0.0542): 1001.62 ± 0.11 kg/m3
- mass density (282.15 K, m1 = 0.0692): 1002.12 ± 0.11 kg/m3
- mass density (282.15 K, m1 = 0.0808): 1002.5 ± 0.11 kg/m3
- mass density (282.15 K, m1 = 0.1014): 1003.2 ± 0.11 kg/m3
- mass density (282.15 K, m1 = 0.1196): 1003.86 ± 0.11 kg/m3
- mass density (282.15 K, m1 = 0.1326): 1004.26 ± 0.11 kg/m3
- mass density (282.15 K, m1 = 0.1555): 1005 ± 0.15 kg/m3
- mass density (282.15 K, m1 = 0.1568): 1005.13 ± 0.15 kg/m3
- mass density (282.15 K, m1 = 0.1835): 1005.93 ± 0.11 kg/m3
- mass density (282.15 K, m1 = 0.2076): 1006.7 ± 0.11 kg/m3
- mass density (282.15 K, m1 = 0.2212): 1007.36 ± 0.12 kg/m3
- mass density (282.65 K, m1 = 0.0132): 1000.19 ± 0.11 kg/m3
- mass density (282.65 K, m1 = 0.0326): 1000.85 ± 0.11 kg/m3
- mass density (282.65 K, m1 = 0.0542): 1001.57 ± 0.11 kg/m3
- mass density (282.65 K, m1 = 0.0692): 1002.07 ± 0.11 kg/m3
- mass density (282.65 K, m1 = 0.0808): 1002.46 ± 0.11 kg/m3
- mass density (282.65 K, m1 = 0.1014): 1003.16 ± 0.11 kg/m3
- mass density (282.65 K, m1 = 0.1196): 1003.81 ± 0.11 kg/m3
- mass density (282.65 K, m1 = 0.1326): 1004.21 ± 0.11 kg/m3
- mass density (282.65 K, m1 = 0.1555): 1004.95 ± 0.15 kg/m3
- mass density (282.65 K, m1 = 0.1568): 1005.08 ± 0.15 kg/m3
- mass density (282.65 K, m1 = 0.1835): 1005.88 ± 0.11 kg/m3
- mass density (282.65 K, m1 = 0.2076): 1006.65 ± 0.11 kg/m3
- mass density (282.65 K, m1 = 0.2212): 1007.31 ± 0.12 kg/m3
- mass density (283.15 K, m1 = 0.0132): 1000.15 ± 0.11 kg/m3
- mass density (283.15 K, m1 = 0.0326): 1000.81 ± 0.11 kg/m3
- mass density (283.15 K, m1 = 0.0542): 1001.53 ± 0.11 kg/m3
- mass density (283.15 K, m1 = 0.0692): 1002.03 ± 0.11 kg/m3
- mass density (283.15 K, m1 = 0.0808): 1002.41 ± 0.11 kg/m3
- mass density (283.15 K, m1 = 0.1014): 1003.11 ± 0.11 kg/m3
- mass density (283.15 K, m1 = 0.1196): 1003.76 ± 0.11 kg/m3
- mass density (283.15 K, m1 = 0.1326): 1004.16 ± 0.11 kg/m3
- mass density (283.15 K, m1 = 0.1555): 1004.9 ± 0.15 kg/m3
- mass density (283.15 K, m1 = 0.1568): 1005.03 ± 0.15 kg/m3
- mass density (283.15 K, m1 = 0.1835): 1005.83 ± 0.11 kg/m3
- mass density (283.15 K, m1 = 0.2076): 1006.6 ± 0.11 kg/m3
- mass density (283.15 K, m1 = 0.2212): 1007.26 ± 0.12 kg/m3

Reference: the NIST ThermoML archive (doi:10.1021/acs.jced.9b00752)
